Laboratory results as given in patent publication US12559506B2, “Indazole based compounds and associated methods of use” (Arvinas Operations, Inc., priority 2021, dated 2026).
Like-named read-outs stand apart in the source and are kept apart here.

Target: T1, LRRK2 (endogenous, HiBit tagged) (Homo sapiens, UniProt Q5S007)
T1 construct: endogenous in cells; host or cells: HEK293 cells with HiBit knock-in at the endogenous LRRK2 locus, stably expressing firefly luciferase
Test: Endogenous LRRK2 degradation assay, endogenous gene C-terminally HiBit-tagged in HEK293 cells (Nano-Glo Dual Luciferase)
Assay type: cell-based
Outline: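 LRRK2-HiBit quantified via Nano-Glo Dual Luciferase in HEK293 knock-in cells co-expressing firefly luciferase, after 24 h exposure to compound (1 μM final top, 1:3, 11 points). Values normalised to DMSO median per plate and curve-fitted; Alamar Blue viability run alongside.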

[1] = endogenous HiBit-tagged LRRK2 in HEK293 cells, 24 hours treatment, read-out: Endogenous WT DC50
[2] = endogenous HiBit-tagged LRRK2 in HEK293 cells, 24 hours treatment, read-out: Endogenous WT Dmax
[3] = endogenous HiBit-tagged LRRK2, HEK293 cells, 24 hours, read-out: **Endogenous WT Dmax (%)
[4] = endogenous HiBit-tagged LRRK2, HEK293 cells, 24 hours, read-out: *Endogenous WT DC50
[5] = endogenous HiBit-tagged LRRK2 in HEK293 cells, 24 hours treatment, read-out: **Endogenous WT Dmax (%)
[6] = endogenous HiBit-tagged LRRK2 in HEK293 cells, 24 hours treatment, read-out: *Endogenous WT DC50

T1 sequence (Q5S007 whole entry): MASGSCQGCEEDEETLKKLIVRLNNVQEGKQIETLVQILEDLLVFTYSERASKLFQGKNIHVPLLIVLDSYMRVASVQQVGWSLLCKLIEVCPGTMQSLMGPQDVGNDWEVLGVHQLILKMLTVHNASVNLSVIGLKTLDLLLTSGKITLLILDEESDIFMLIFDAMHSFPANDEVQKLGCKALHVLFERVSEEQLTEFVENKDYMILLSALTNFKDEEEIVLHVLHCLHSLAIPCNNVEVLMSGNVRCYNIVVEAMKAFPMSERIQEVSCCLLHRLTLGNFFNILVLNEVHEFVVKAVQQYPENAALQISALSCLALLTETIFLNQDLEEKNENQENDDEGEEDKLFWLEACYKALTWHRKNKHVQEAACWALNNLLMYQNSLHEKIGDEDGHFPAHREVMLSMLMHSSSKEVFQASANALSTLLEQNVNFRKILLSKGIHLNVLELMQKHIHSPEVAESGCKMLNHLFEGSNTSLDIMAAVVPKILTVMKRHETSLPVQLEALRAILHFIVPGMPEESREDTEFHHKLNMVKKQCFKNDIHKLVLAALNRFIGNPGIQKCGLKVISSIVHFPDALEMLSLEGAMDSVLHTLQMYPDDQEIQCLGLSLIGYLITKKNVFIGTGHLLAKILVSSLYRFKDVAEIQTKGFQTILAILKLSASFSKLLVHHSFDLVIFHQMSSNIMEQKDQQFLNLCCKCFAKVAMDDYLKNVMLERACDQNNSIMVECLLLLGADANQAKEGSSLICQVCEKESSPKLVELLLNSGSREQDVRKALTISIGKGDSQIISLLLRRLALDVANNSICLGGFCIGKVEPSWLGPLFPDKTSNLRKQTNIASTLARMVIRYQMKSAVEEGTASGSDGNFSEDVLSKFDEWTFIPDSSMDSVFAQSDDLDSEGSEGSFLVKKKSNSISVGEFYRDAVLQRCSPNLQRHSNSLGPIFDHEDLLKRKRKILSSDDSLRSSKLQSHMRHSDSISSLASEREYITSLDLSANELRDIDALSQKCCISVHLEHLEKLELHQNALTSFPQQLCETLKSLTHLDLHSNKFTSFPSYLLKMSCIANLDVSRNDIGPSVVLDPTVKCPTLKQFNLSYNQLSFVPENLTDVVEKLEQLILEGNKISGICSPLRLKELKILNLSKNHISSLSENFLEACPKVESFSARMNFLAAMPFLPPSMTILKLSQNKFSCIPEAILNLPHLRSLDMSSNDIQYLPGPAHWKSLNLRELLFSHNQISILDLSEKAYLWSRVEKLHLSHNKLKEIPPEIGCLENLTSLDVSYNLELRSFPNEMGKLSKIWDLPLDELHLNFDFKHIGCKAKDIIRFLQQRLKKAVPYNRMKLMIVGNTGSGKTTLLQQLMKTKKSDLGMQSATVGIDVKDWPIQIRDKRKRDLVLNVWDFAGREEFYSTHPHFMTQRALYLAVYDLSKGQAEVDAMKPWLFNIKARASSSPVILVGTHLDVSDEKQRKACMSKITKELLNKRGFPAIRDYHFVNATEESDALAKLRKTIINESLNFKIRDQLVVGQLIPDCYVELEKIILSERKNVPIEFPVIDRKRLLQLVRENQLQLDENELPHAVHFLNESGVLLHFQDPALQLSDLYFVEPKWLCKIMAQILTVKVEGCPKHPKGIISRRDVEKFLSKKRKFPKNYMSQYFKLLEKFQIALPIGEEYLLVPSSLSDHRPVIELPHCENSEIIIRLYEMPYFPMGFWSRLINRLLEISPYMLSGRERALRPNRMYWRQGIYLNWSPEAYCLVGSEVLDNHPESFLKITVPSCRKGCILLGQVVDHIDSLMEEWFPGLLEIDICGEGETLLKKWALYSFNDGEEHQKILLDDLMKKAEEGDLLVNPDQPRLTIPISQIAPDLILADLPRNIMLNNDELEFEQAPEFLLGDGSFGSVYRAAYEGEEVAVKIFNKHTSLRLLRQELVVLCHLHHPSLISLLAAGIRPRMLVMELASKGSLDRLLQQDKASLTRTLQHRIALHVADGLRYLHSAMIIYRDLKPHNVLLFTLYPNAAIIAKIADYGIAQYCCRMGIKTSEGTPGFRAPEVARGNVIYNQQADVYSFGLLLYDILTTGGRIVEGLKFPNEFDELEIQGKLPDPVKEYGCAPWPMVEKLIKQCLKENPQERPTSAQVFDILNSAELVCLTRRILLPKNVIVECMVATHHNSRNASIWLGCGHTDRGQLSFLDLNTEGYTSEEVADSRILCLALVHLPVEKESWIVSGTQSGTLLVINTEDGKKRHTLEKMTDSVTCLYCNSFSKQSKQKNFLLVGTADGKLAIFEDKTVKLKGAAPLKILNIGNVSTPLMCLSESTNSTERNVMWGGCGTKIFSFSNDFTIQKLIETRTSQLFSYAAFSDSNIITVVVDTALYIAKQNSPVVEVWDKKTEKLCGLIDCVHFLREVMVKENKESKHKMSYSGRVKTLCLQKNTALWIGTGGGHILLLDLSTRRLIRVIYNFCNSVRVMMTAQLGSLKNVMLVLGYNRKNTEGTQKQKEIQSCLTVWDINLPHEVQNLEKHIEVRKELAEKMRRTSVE

SMILES	DC50 [1]	Dmax [2]	Dmax [5]	DC50 [6]	also measured
CC1(Oc2ccc3n[nH]c(-c4cc(N5CCC(CN6CCN(CC7(F)CCN(c8ccc9c(c8F)CN(C8CCC(=O)NC8=O)C9=O)CC7)CC6)CC5)ncn4)c3c2)CC1 (stereo not shown) [Compound 209, 3-[4-fluoro-5-[4-fluoro-4-[[4-[[1-[6-[5-(1-methylcyclopropoxy)-2H-indazol-3-yl]pyrimidin-4-yl]-4-piperidyl]methyl]piperazin-1-yl]methyl]-1-piperidyl]-1-oxo-isoindolin-2-yl]piperidine-2,6-dione]	< 10 nM	≥ 70%	–	–	–
Cc1cc(-c2n[nH]c3ccc(OC4(C)CC4)cc23)cc(N2CCN(C[C@H]3CC[C@H](OC4CCN(c5ccc6c(c5F)CN(C5CCC(=O)NC5=O)C6=O)CC4)CC3)CC2)n1 (stereo partly shown) [Compound 379, 3-[4-fluoro-1-oxo-5-(4-{[(1r,4r)-4-[(4-{6-methyl-4-[5-(1-methylcyclopropoxy)-1H-indazol-3-yl]pyridin-2-yl}piperazin-1-yl)methyl]cyclohexyl]oxy}piperidin-1-yl)-2,3-dihydro-1H-isoindol-2-yl]piperidine-2,6-dione]	< 10 nM	50 to 70%	–	–	–
CC1(Oc2ccc3[nH]nc(-c4cc(N5CCC(COC6CCC7(CC6)CN(c6ccc8c(c6F)CN(C6CCC(=O)NC6=O)C8=O)C7)CC5)ncn4)c3c2)CC1 (stereo not shown) [Compound 372, 3-(4-fluoro-5-{7-[(1-{6-[5-(1-methylcyclopropoxy)-1H-indazol-3-yl]pyrimidin-4-yl}piperidin-4-yl)methoxy]-2-azaspiro[3.5]nonan-2-yl}-1-oxo-2,3-dihydro-1H-isoindol-2-yl)piperidine-2,6-dione]	< 10 nM	50 to 70%	–	–	–
CC1(Oc2ccc3[nH]nc(-c4cc(N5CCC(CN6CCN(CC7CCN(c8ccc9c(c8F)CN(C8CCC(=O)NC8=O)C9=O)CC7)CC6)CC5)ncn4)c3c2)CC1 (stereo not shown) [Compound 181, 3-[4-fluoro-5-[4-[[4-[[1-[6-[5-(1-methylcyclopropoxy)-1H-indazol-3-yl]pyrimidin-4-yl]-4-piperidyl]methyl]piperazin-1-yl]methyl]-1-piperidyl]-1-oxo-isoindolin-2-yl]piperidine-2,6-dione]	–	–	–	–	Dmax [3]: ≥ 70%; DC50 [4]: < 10 nM
C[C@@H]1CN(c2cc(-c3n[nH]c4ccc(OC5(C)CC5)cc34)ncn2)C[C@H](C)N1C[C@H]1CC[C@H](OC2CCN(c3ccc4c(c3F)CN(C3CCC(=O)NC3=O)C4=O)CC2)CC1 (stereo partly drawn) [Compound 352, 3-[4-fluoro-1-oxo-5-(4-{[(1r,4r)-4-{[(2R,6S)-2,6-dimethyl-4-{6-[5-(1-methylcyclopropoxy)-1H-indazol-3-yl]pyrimidin-4-yl}piperazin-1-yl]methyl}cyclohexyl]oxy}piperidin-1-yl)-2,3-dihydro-1H-isoindol-2-yl]piperidine-2,6-dione]	–	–	50 to 70%	< 10 nM	–
COc1c(N2CCN(C[C@H]3CC[C@H](OC4CCN(c5cc(-c6n[nH]c7ccc(OC8(C)CC8)cc67)ncn5)CC4)CC3)C(C)(C)C2)ccc2c1CN(C1CCC(=O)NC1=O)C2=O (stereo partly shown) [Compound 364, 3-[5-(3,3-dimethyl-4-{[(1r,4r)-4-[(1-{6-[5-(1-methylcyclopropoxy)-1H-indazol-3-yl]pyrimidin-4-yl}piperidin-4-yl)oxy]cyclohexyl]methyl}piperazin-1-yl)-4-methoxy-1-oxo-2,3-dihydro-1H-isoindol-2-yl]piperidine-2,6-dione]	< 10 nM	50 to 70%	–	–	–
C[C@H]1CN(c2ccc3c(c2F)CN(C2CCC(=O)NC2=O)C3=O)CCN1C[C@H]1CC[C@H](OC2CCN(c3cc(-c4n[nH]c5ccc(OC6(C)CC6)cc45)ncn3)CC2)CC1 (stereo partly drawn) [Compound 346, 3-{4-fluoro-5-[(3S)-3-methyl-4-{[(1r,4r)-4-[(1-{6-[5-(1-methylcyclopropoxy)-1H-indazol-3-yl]pyrimidin-4-yl}piperidin-4-yl)oxy]cyclohexyl]methyl}piperazin-1-yl]-1-oxo-2,3-dihydro-1H-isoindol-2-yl}piperidine-2,6-dione]	–	–	50 to 70%	< 10 nM	–
COc1c(N2CCC(CN3CCN(CC4CCN(c5cc(-c6n[nH]c7cnc(OC8(C)CC8)cc67)ncn5)CC4)C[C@@H]3C)CC2)ccc2c1CN(C1CCC(=O)NC1=O)C2=O (stereo partly drawn) [Compound 271, 3-[4-methoxy-5-(4-{[(2S)-2-methyl-4-[(1-{6-[5-(1-methylcyclopropoxy)-1H-pyrazolo[3,4-c]pyridin-3-yl]pyrimidin-4-yl}piperidin-4-yl)methyl]piperazin-1-yl]methyl}piperidin-1-yl)-1-oxo-2,3-dihydro-1H-isoindol-2-yl]piperidine-2,6-dione]	–	–	50 to 70%	< 10 nM	–
CC1(Oc2cc3c(-c4cc(N5CCC(O[C@H]6CC[C@H](OC7CCN(c8ccc9c(c8F)CN(C8CCC(=O)NC8=O)C9=O)CC7)CC6)CC5)ncn4)n[nH]c3cc2F)CC1 (stereo partly shown) [Compound 227, 3-[4-fluoro-1-oxo-5-(4-{[(1r,4r)-4-[(1-{6-[6-fluoro-5-(1-methylcyclopropoxy)-1H-indazol-3-yl]pyrimidin-4-yl}piperidin-4-yl)oxy]cyclohexyl]oxy}piperidin-1-yl)-2,3-dihydro-1H-isoindol-2-yl]piperidine-2,6-dione]	< 10 nM	50 to 70%	–	–	–
COc1c(N2CCN(C[C@H]3C[C@H](OC4CCN(c5cc(-c6[nH]nc7ccc(OC8(C)CC8)cc67)ncn5)CC4)C3)CC2)ccc2c1CN(C1CCC(=O)NC1=O)C2=O (stereo partly shown) [Compound 314, 3-[4-methoxy-1-oxo-5-(4-{[(1r,3r)-3-[(1-{6-[5-(1-methylcyclopropoxy)-2H-indazol-3-yl]pyrimidin-4-yl}piperidin-4-yl)oxy]cyclobutyl]methyl}piperazin-1-yl)-2,3-dihydro-1H-isoindol-2-yl]piperidine-2,6-dione]	–	–	50 to 70%	< 10 nM	–
CC1(Oc2ccc3[nH]nc(-c4cc(N5CCN(CC6(F)CCN(CC7CCN(c8ccc9c(c8F)CN(C8CCC(=O)NC8=O)C9=O)CC7)CC6)CC5)ncn4)c3c2)CC1 (stereo not shown) [Compound 182, 3-[4-fluoro-5-[4-[[4-fluoro-4-[[4-[6-[5-(1-methylcyclopropoxy)-1H-indazol-3-yl]pyrimidin-4-yl]piperazin-1-yl]methyl]-1-piperidyl]methyl]-1-piperidyl]-1-oxo-isoindolin-2-yl]piperidine-2,6-dione]	–	–	–	–	Dmax [3]: ≥ 70%; DC50 [4]: < 10 nM
COc1c(N2CCC(CN3CCN(CC4CCN(c5cc(-c6n[nH]c7cnc(OC8(C)CC8)cc67)ncn5)CC4)[C@@H](C)C3)CC2)ccc2c1CN(C1CCC(=O)NC1=O)C2=O (stereo partly drawn) [Compound 282, 3-[4-methoxy-5-(4-{[(3S)-3-methyl-4-[(1-{6-[5-(1-methylcyclopropoxy)-1H-pyrazolo[3,4-c]pyridin-3-yl]pyrimidin-4-yl}piperidin-4-yl)methyl]piperazin-1-yl]methyl}piperidin-1-yl)-1-oxo-2,3-dihydro-1H-isoindol-2-yl]piperidine-2,6-dione]	–	–	≥ 70%	< 10 nM	–
C[C@@H]1CN(CC2CCN(c3cc(-c4n[nH]c5ccc(OC6(C)CC6)cc45)ncn3)CC2)C[C@H](C)N1CC1CCN(c2ccc3c(c2F)CN(C2CCC(=O)NC2=O)C3=O)CC1 (stereo partly drawn) [Compound 307, 3-[5-(4-{[(2R,6S)-2,6-dimethyl-4-[(1-{6-[5-(1-methylcyclopropoxy)-1H-indazol-3-yl]pyrimidin-4-yl}piperidin-4-yl)methyl]piperazin-1-yl]methyl}piperidin-1-yl)-4-fluoro-1-oxo-2,3-dihydro-1H-isoindol-2-yl]piperidine-2,6-dione]	–	–	50 to 70%	< 10 nM	–
C[C@H]1CN(CC2(F)CCN(CC3CCN(c4cc(-c5n[nH]c6ccc(OC7(C)CC7)cc56)ncn4)CC3)CC2)CCN1c1ccc2c(c1F)CN(C1CCC(=O)NC1=O)C2=O (stereo partly drawn) [Compound 355, 3-{4-fluoro-5-[(2S)-4-({4-fluoro-1-[(1-{6-[5-(1-methylcyclopropoxy)-1H-indazol-3-yl]pyrimidin-4-yl}piperidin-4-yl)methyl]piperidin-4-yl}methyl)-2-methylpiperazin-1-yl]-1-oxo-2,3-dihydro-1H-isoindol-2-yl}piperidine-2,6-dione]	–	–	50 to 70%	< 10 nM	–
COc1c(N2CCC(CN3CCC(F)(CN4CCN(c5cc(-c6n[nH]c7ccc(OC8(C)CC8)cc67)ncn5)CC4)CC3)CC2)ccc2c1CN(C1CCC(=O)NC1=O)C2=O (stereo not shown) [Compound 212, 3-[5-[4-[[4-fluoro-4-[[4-[6-[5-(1-methylcyclopropoxy)-1H-indazol-3-yl]pyrimidin-4-yl]piperazin-1-yl]methyl]-1-piperidyl]methyl]-1-piperidyl]-4-methoxy-1-oxo-isoindolin-2-yl]piperidine-2,6-dione]	< 10 nM	50 to 70%	–	–	–
C[C@H]1CN(CC2CCN(c3cc(-c4n[nH]c5ccc(OC6(C)CC6)cc45)ncn3)CC2)CCN1CC1CCN(c2ccc3c(c2F)CN(C2CCC(=O)NC2=O)C3=O)CC1 (stereo partly drawn) [Compound 222, 3-[4-fluoro-5-(4-{[(2S)-2-methyl-4-[(1-{6-[5-(1-methylcyclopropoxy)-1H-indazol-3-yl]pyrimidin-4-yl}piperidin-4-yl)methyl]piperazin-1-yl]methyl}piperidin-1-yl)-1-oxo-2,3-dihydro-1H-isoindol-2-yl]piperidine-2,6-dione]	< 10 nM	≥ 70%	–	–	–
CC1(Oc2ccc3[nH]nc(-c4cc(N5CC[C@@H](CN6CCN(CC7CCN(c8ccc9c(c8F)CN(C8CCC(=O)NC8=O)C9=O)CC7)CC6)C5)ncn4)c3c2)CC1 (stereo partly drawn) [Compound 327, 3-(4-fluoro-5-{4-[(4-{[(3S)-1-{6-[5-(1-methylcyclopropoxy)-1H-indazol-3-yl]pyrimidin-4-yl}pyrrolidin-3-yl]methyl}piperazin-1-yl)methyl]piperidin-1-yl}-1-oxo-2,3-dihydro-1H-isoindol-2-yl)piperidine-2,6-dione]	–	–	50 to 70%	< 10 nM	–
